Measured values reported in ChEMBL document CHEMBL1149774, “Synthesis of N-(5,7-diamino-3-phenyl-quinoxalin-2-yl)-3,4,5-substituted anilines and N-[4[(5,7-diamino-3-phenylquinoxalin-2-yl)amino]benzoyl]-l-glutamic acid diethyl ester: evaluation of in vitro anti-cancer and anti-folate activities” (Eur J Med Chem, 2008).
The source made the active and inactive calls. The rule behind the calls is not given here.

Experiments:
RXF 393 = assay: Growth inhibition of human RXF393 cells after 48 hrs by SRB staining method; type: functional; details: RXF 393, 48 h
ACHN = assay: Growth inhibition of human ACHN cells after 48 hrs by SRB staining method; type: functional
DU-145 = assay: Growth inhibition of human DU145 cells after 48 hrs by SRB staining method; type: functional; details: DU-145, 48 h
[1] = Growth inhibition of human HS 578T cells after 48 hrs by SRB staining method; type: functional
UACC-257 = assay: Growth inhibition of human UACC257 cells after 48 hrs by SRB staining method; type: functional; details: UACC-257, 48 h
NCI/ADR-RES = assay: Growth inhibition of human NCI/ADR-RES cells after 48 hrs by SRB staining method; type: functional
COLO 205 = assay: Growth inhibition of human COLO205 cells after 48 hrs by SRB staining method; type: functional; details: COLO 205, 48 h
K562 = assay: Growth inhibition of human K562 cells after 48 hrs by SRB staining method; type: functional; details: K562, 48 h
[2] = molecular target: T1, Dihydrofolate reductase (Homo sapiens) (UniProt P00374); assay: Inhibition of human dihydrofolate reductase at 10 uM
T1 sequence (whole entry): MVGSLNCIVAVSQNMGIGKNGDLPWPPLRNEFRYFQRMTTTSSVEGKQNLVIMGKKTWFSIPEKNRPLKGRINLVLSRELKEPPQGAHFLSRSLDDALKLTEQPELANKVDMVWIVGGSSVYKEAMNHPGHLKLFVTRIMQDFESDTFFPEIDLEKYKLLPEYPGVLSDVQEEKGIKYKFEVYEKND

SNB-19 = assay: Growth inhibition of human SNB19 cells after 48 hrs by SRB staining method; type: functional; details: SNB-19, 48 h
CAKI-1 = assay: Growth inhibition of human CAKI1 cells after 48 hrs by SRB staining method; type: functional; details: CAKI-1, 48 h
SF-539 = assay: Growth inhibition of human SF539 cells after 48 hrs by SRB staining method; type: functional; details: SF-539, 48 h
TK-10 = assay: Growth inhibition of human TK10 cells after 48 hrs by SRB staining method; type: functional; details: TK-10, 48 h
HCC 2998 = assay: Growth inhibition of human HCC2998 cells after 48 hrs by SRB staining method; type: functional; details: HCC 2998, 48 h
IGROV-1 = assay: Growth inhibition of human IGROV1 cells after 48 hrs by SRB staining method; type: functional; details: IGROV-1, 48 h
UACC-62 = assay: Growth inhibition of human UACC62 cells after 48 hrs by SRB staining method; type: functional; details: UACC-62, 48 h
MDA-MB-435 = assay: Growth inhibition of human MDA-MB-435 cells after 48 hrs by SRB staining method; type: functional; details: MDA-MB-435, 48 h
M14 = assay: Growth inhibition of human M14 cells after 48 hrs by SRB staining method; type: functional; details: M14, 48 h
Thymidylate synthase = molecular target: T2, Thymidylate synthase (Lactobacillus casei, UniProt P00469)
T2 sequence (P00469 whole entry): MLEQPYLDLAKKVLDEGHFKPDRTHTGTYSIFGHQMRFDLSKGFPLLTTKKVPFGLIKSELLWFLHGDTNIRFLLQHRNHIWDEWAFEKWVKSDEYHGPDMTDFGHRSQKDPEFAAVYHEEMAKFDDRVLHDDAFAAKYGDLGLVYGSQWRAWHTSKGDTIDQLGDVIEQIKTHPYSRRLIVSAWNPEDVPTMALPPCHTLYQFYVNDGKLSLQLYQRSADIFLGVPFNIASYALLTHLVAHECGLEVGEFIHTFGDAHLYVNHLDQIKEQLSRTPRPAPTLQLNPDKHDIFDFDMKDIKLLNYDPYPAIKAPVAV
Description: Inhibition of Lactobacillus casei thymidylate synthase

HT-29 = assay: Growth inhibition of human HT29 cells after 48 hrs by SRB staining method; type: functional; details: HT-29, 48 h
T47D = assay: Growth inhibition of human T47D cells after 48 hrs by SRB staining method; type: functional
NCI-H226 = assay: Growth inhibition of human NCI-H226 cells after 48 hrs by SRB staining method; type: functional; details: NCI-H226, 48 h
SF-268 = assay: Growth inhibition of human SF268 cells after 48 hrs by SRB staining method; type: functional; details: SF-268, 48 h
MOLT-4 = assay: Growth inhibition of human MOLT4 cells after 48 hrs by SRB staining method; type: functional; details: MOLT-4, 48 h
[3] = read-out: pLC50 (the source's name) (converted)

Structure (SMILES): COc1ccc(Nc2nc3cc(N)cc(N)c3nc2-c2ccccc2)cc1OC
- GI50 (RXF 393): 8.13 µM
- CC50 (RXF 393; [3]): > 100 µM
- TGI (RXF 393; read-out: pTGI (converted)): 49 µM
- GI50 (ACHN): 27.5 µM
- CC50 (ACHN; [3]): > 100 µM
- TGI (ACHN; read-out: pTGI (converted)): > 100 µM
- GI50 (DU-145): 44.7 µM
- CC50 (DU-145; [3]): > 100 µM
- TGI (DU-145; read-out: pTGI (converted)): > 100 µM
- GI50 [1]: 18.6 µM
- CC50 [1, 3]: > 100 µM
- TGI ([1]; read-out: pTGI (converted)): 50.1 µM
- GI50 (UACC-257): 35.5 µM
- LC50 (UACC-257): > 100 µM
- TGI (UACC-257; read-out: pTGI (converted)): > 100 µM
- GI50 (NCI/ADR-RES): 17.4 µM
- CC50 (NCI/ADR-RES; [3]): > 100 µM
- TGI (NCI/ADR-RES; read-out: pTGI (converted)): 42.7 µM
- GI50 (COLO 205): 20 µM
- LC50 (COLO 205): 85.1 µM
- TGI (COLO 205; read-out: pTGI (converted)): 40.7 µM
- GI50 (K562): 20.4 µM
- CC50 (K562; [3]): > 100 µM
- TGI (K562; read-out: pTGI (converted)): 70.8 µM
- Activity [2]: inactive
- GI50 (SNB-19): 35.5 µM
- LC50 (SNB-19): > 100 µM
- TGI (SNB-19; read-out: pTGI (converted)): > 100 µM
- GI50 (CAKI-1): 18.2 µM
- CC50 (CAKI-1; [3]): > 100 µM
- TGI (CAKI-1; read-out: pTGI (converted)): 66.1 µM
- GI50 (SF-539): 16.2 µM
- LC50 (SF-539): 87.1 µM
- TGI (SF-539; read-out: pTGI (converted)): 37.2 µM
- GI50 (TK-10): 20.9 µM
- CC50 (TK-10; [3]): > 100 µM
- TGI (TK-10; read-out: pTGI (converted)): 58.9 µM
- GI50 (HCC 2998): 18.2 µM
- LC50 (HCC 2998): 85.1 µM
- TGI (HCC 2998; read-out: pTGI (converted)): 39.8 µM
- GI50 (IGROV-1): 24.5 µM
- LC50 (IGROV-1): > 100 µM
- TGI (IGROV-1; read-out: pTGI (converted)): > 100 µM
- GI50 (UACC-62): 13.5 µM
- LC50 (UACC-62): 56.2 µM
- TGI (UACC-62; read-out: pTGI (converted)): 27.5 µM
- GI50 (MDA-MB-435): 16.2 µM
- CC50 (MDA-MB-435; [3]): 63.1 µM
- TGI (MDA-MB-435; read-out: pTGI (converted)): 32.4 µM
- GI50 (M14): 20.9 µM
- LC50 (M14): > 100 µM
- TGI (M14; read-out: pTGI (converted)): 69.2 µM
- Ki (Thymidylate synthase): 6 µM
- GI50 (HT-29): 25.1 µM
- LC50 (HT-29): > 100 µM
- TGI (HT-29; read-out: pTGI (converted)): 52.5 µM
- GI50 (T47D): 14.5 µM
- CC50 (T47D; [3]): > 100 µM
- TGI (T47D; read-out: pTGI (converted)): 38 µM
- GI50 (NCI-H226): 18.6 µM
- LC50 (NCI-H226): > 100 µM
- TGI (NCI-H226; read-out: pTGI (converted)): 57.5 µM
- GI50 (SF-268): 14.1 µM
- CC50 (SF-268; [3]): > 100 µM
- TGI (SF-268; read-out: pTGI (converted)): 46.8 µM
- GI50 (MOLT-4): 6.92 µM
- CC50 (MOLT-4; [3]): > 100 µM
- TGI (MOLT-4; read-out: pTGI (converted)): > 100 µM
